Some results are limits rather than exact numbers.

One experiment deals with adenosine A2B receptor (Homo sapiens (Human), UniProt P29275). Put plainly: Adenosine receptor activity assay (Table 1), A2B activity. It is filed as biochemical. To be noted: for Ratio: A2A activity to A2B activity (A2A/A2B); for IC50: read-out: Ave A2B cAMP IC50.
A further experiment concerns the target adenosine A2A receptor (Homo sapiens (Human), UniProt P29274). Put plainly: Adenosine receptor activity assay (Table 1), A2A activity. It is filed as biochemical. To be noted: read-out: Ave A2A cAMP IC50.

Sequence of adenosine A2A receptor (P29274 whole entry): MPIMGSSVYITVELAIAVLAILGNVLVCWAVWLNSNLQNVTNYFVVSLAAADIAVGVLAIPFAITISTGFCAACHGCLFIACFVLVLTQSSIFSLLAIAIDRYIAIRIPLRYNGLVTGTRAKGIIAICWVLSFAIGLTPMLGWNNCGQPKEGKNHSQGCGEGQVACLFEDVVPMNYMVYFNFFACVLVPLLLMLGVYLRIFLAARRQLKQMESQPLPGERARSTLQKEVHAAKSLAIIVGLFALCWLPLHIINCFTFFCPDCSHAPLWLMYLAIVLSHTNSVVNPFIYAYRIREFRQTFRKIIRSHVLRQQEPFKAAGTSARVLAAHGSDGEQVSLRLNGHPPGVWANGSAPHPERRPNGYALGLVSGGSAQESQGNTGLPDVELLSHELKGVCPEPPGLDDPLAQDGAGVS
Sequence of adenosine A2B receptor (P29275 whole entry): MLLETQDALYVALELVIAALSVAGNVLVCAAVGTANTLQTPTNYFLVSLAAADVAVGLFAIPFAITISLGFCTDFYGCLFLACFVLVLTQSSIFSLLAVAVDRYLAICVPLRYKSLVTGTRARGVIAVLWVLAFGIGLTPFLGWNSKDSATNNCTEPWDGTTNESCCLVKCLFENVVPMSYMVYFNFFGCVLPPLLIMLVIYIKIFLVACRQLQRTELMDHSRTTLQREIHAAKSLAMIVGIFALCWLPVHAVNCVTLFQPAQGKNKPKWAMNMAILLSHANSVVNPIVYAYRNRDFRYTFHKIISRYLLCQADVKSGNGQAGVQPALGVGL

For the molecule “2-(((5-Fluoropyridin-3-yl)methyl)amino)-N-((tetrahydro-2H-pyran-4-yl)methyl)thieno[3,2-d]pyrimidine-4-carboxamide [Example Z219]”, on adenosine A2B receptor, the Ratio turned out to be 8.45 and the IC50 (as a rule, the concentration needed to halve the response being measured) fell in the range of 10 to 50 nM. Besides, the IC50 at adenosine A2A receptor was 100 to 500 nM.
As to `C[C@H](NC(=O)c1nc(N[C@@H](C)c2cccnc2)nc2ccsc12)c1cccnc1` [Example Z1, N—((S)-1-(Pyridin-3-yl)ethyl)-2-(((S)-1-(pyridin-3-yl)ethyl)amino)thieno[3,2-d]pyrimidine-4-carboxamide], at adenosine A2B receptor, the Ratio stood at 0.55 and the IC50 lay within 100 to 500 nM. Besides, on adenosine A2A receptor, the IC50 fell in the range of 50 to 100 nM.
As for `C[C@H](Nc1nc(C(=O)N2CCC(C)(C)C2)c2sccc2n1)c1cccnc1` [Example Z3, (S)-(3,3-Dimethylpyrrolidin-1-yl)(2-((1-(pyridin-3-yl)ethyl)amino)thieno[3,2-d]pyrimidin-4-yl)methanone], the Ratio at adenosine A2B receptor is 1.26. Also, the IC50 at adenosine A2B receptor and at adenosine A2A receptor was 100 to 500 nM each time.
On to `O=C(NCc1cncnc1)c1nc(NCc2cncnc2)nc2ccsc12` [Example Z4, N-(Pyrimidin-5-ylmethyl)-2-((pyrimidin-5-ylmethyl)amino)thieno[3,2-d]pyrimidine-4-carboxamide], for which the Ratio on adenosine A2B receptor is recorded as 0.95. For the same molecule, the IC50 on adenosine A2B receptor and at adenosine A2A receptor was more than 500 nM throughout.
As for `O=C(c1nc(NCc2cncnc2)nc2ccsc12)N1CCCC1` [Example Z5, (2-((Pyrimidin-5-ylmethyl)amino)thieno[3,2-d]pyrimidin-4-yl)(pyrrolidin-1-yl)methanone], at adenosine A2B receptor, the Ratio worked out at 18.06 and the IC50 was 100 to 500 nM. Also, at adenosine A2A receptor, the IC50 is more than 500 nM.
In the case of `C[C@H](Nc1nc(C(=O)NCc2cncnc2)c2sccc2n1)c1cccnc1` [Example Z6, (S)-2-((1-(Pyridin-3-yl)ethyl)amino)-N-(pyrimidin-5-ylmethyl)thieno[3,2-d]pyrimidine-4-carboxamide], at adenosine A2B receptor, the Ratio stood at 0.49 and the IC50 is more than 500 nM. Further, the IC50 on adenosine A2A receptor is more than 500 nM.
Regarding `CC1(C)CCN(C(=O)c2nc(NCc3cncnc3)nc3ccsc23)C1` [Example Z7, (3,3-Dimethylpyrrolidin-1-yl)(2-((pyrimidin-5-ylmethyl)amino)thieno[3,2-d]pyrimidin-4-yl)methanone], at adenosine A2B receptor, the Ratio came out at 0.57 and the IC50 was more than 500 nM. In addition, the IC50 at adenosine A2A receptor was more than 500 nM.
For the molecule `C[C@H](Nc1nc(C(=O)N2CCOCC2)c2sccc2n1)c1cccnc1` [Example Z11, (S)-Morpholino(2-((1-(pyridin-3-yl)ethyl)amino)thieno[3,2-d]pyrimidin-4-yl)methanone], at adenosine A2B receptor, the Ratio amounted to 4.88 and the IC50 is more than 500 nM. Besides, the IC50 on adenosine A2A receptor is more than 500 nM.
For the molecule `COc1ccc(CNC(=O)c2nc(NCc3ccc(OC)nc3)nc3ccsc23)cn1` [Example Z12, N-((6-Methoxypyridin-3-yl)methyl)-2-(((6-methoxypyridin-3-yl)methyl)amino)thieno[3,2-d]pyrimidine-4-carboxamide], on adenosine A2B receptor, the Ratio was found to be 0.15 and the IC50 is more than 500 nM. Besides, on adenosine A2A receptor, the IC50 fell in the range of 50 to 100 nM.
Take `C[C@H](Nc1nc(C(=O)N2CC3(COC3)C2)c2sccc2n1)c1cccnc1` [Example Z14, (S)-(2-((1-(Pyridin-3-yl)ethyl)amino)thieno[3,2-d]pyrimidin-4-yl)(2-oxa-6-azaspiro[3.3]heptan-6-yl)methanone]: on adenosine A2B receptor, the Ratio is listed as 1.35 and the IC50 lay in the range of 100 to 500 nM. Further, the IC50 on adenosine A2A receptor lay in the range of 100 to 500 nM.
In the case of `O=C(NCc1cncc(F)c1)c1nc(NCc2cncc(F)c2)nc2ccsc12` [Example Z15, N-((5-Fluoropyridin-3-yl)methyl)-2-(((5-fluoropyridin-3-yl)methyl)amino)thieno[3,2-d]pyrimidine-4-carboxamide], at adenosine A2B receptor, the Ratio stood at 9.43. Further, the IC50 at adenosine A2B receptor was 100 to 500 nM; at adenosine A2A receptor, more than 500 nM.
For `COc1ccc(CNc2nc(C(=O)N3CCCC3)c3sccc3n2)cn1` [Example Z17, (2-(((6-Methoxypyridin-3-yl)methyl)amino)thieno[3,2-d]pyrimidin-4-yl)(pyrrolidin-1-yl)methanone] the same measures were 0.19, 100 to 500 nM and 50 to 100 nM.
`C[C@H](Nc1nc(C(=O)NCc2cncc(F)c2)c2sccc2n1)c1cccnc1` [Example Z20, (S)—N-((5-Fluoropyridin-3-yl)methyl)-2-((1-(pyridin-3-yl)ethyl)amino)thieno[3,2-d]pyrimidine-4-carboxamide]: on adenosine A2B receptor, the Ratio amounted to 0.62 and the IC50 is 100 to 500 nM. In addition, the IC50 on adenosine A2A receptor lay within 100 to 500 nM.
Consider `CN(C(=O)c1nc(NCc2cncc(F)c2)nc2ccsc12)C1CCC(C)(C)C1` (centres unmarked) [Example Z22, N-(3,3-Dimethylcyclopentyl)-2-(((5-fluoropyridin-3-yl)methyl)amino)-N-methylthieno[3,2-d]pyrimidine-4-carboxamide], for which, at adenosine A2B receptor, the Ratio amounted to 7.49 and the IC50 is more than 500 nM. In addition, the IC50 on adenosine A2A receptor was more than 500 nM.
Take `CCC(NC(=O)c1nc(NC(CC)c2cccnc2)nc2ccsc12)c1cccnc1` (centres unmarked) [Example Z23, N-(1-(Pyridin-3-yl)propyl)-2-((1-(pyridin-3-yl)propyl)amino)thieno[3,2-d]pyrimidine-4-carboxamide]: at adenosine A2B receptor, the Ratio is 5.63 and the IC50 was more than 500 nM. The IC50 at adenosine A2A receptor was more than 500 nM.
Turning to `CCC(Nc1nc(C(=O)NCc2ccc(OC)nc2)c2sccc2n1)c1cccnc1` (centres unmarked) [Example Z83, N-((6-Methoxypyridin-3-yl)methyl)-2-((1-(pyridin-3-yl)propyl)amino)thieno[3,2-d]pyrimidine-4-carboxamide], at adenosine A2A receptor, the IC50 fell in the range of 100 to 500 nM.
For the molecule `COc1cncc(CNC(=O)c2nc(N[C@@H](C)c3ccccn3)nc3ccsc23)c1` [Example Z110, (S)—N-((5-Methoxypyridin-3-yl)methyl)-2-((1-(pyridin-2-yl)ethyl)amino)thieno[3,2-d]pyrimidine-4-carboxamide], on adenosine A2B receptor, the Ratio worked out at 3.23 and the IC50 fell in the range of 50 to 100 nM.
Regarding `COCC(Nc1nc(C(=O)N2CCC2)c2sccc2n1)c1cccnc1` (centres unmarked) [Example Z126, Azetidin-1-yl(2-((2-methoxy-1-(pyridin-3-yl)ethyl)amino)thieno[3,2-d]pyrimidin-4-yl)methanone], the half-inhibitory concentration (IC50) at adenosine A2B receptor lay within 10 to 50 nM.
Take `C[C@H](Nc1nc(C(=O)N2CC[C@@H](S(C)(=O)=O)C2)c2sccc2n1)c1ccccn1` [Example Z256]: the IC50 at adenosine A2B receptor fell in the range of 100 to 500 nM.
Turning to `C[C@H](Nc1nc(C(=O)N[C@H]2CC[C@@H](O)C2)c2sccc2n1)c1ccccn1` [Example Z332, N-((1S,3R)-3-Hydroxycyclopentyl)-2-(((S)-1-(pyridin-2-yl)ethyl)amino)thieno[3,2-d]pyrimidine-4-carboxamide], the IC50 on adenosine A2A receptor lay within 100 to 500 nM.
Still for that read-out and setting: next, `C[C@H](Nc1nc(C(=O)NCCc2ccccc2O)c2sccc2n1)c1cncc(F)c1` [Example Z448, (S)-2-((1-(5-fluoropyridin-3-yl)ethyl)amino)-N-(2-hydroxyphen-ethyl)thieno[3,2-d]pyrimidine-4-carboxamide]: 100 to 500 nM.
Regarding `CNCC1CN(C(=O)c2nc(N[C@@H](C)c3cncc(F)c3)nc3ccsc23)C1` [Example Z544, (S)-(2-((1-(5-Fluoropyridin-3-yl)ethyl)amino)thieno[3,2-d]pyrimidin-4-yl)(3-((methylamino)methyl)azetidin-1-yl)methanone], the IC50 at adenosine A2B receptor was 100 to 500 nM.

(Values after US11254686B1 (Corvus Pharmaceuticals, Inc., priority 2017, dated 2022).)
